Measured values reported in ChEMBL document CHEMBL3124812, “Benzamidobenzoic acids as potent PqsD inhibitors for the treatment of Pseudomonas aeruginosa infections” (Eur J Med Chem, 2014).
Activity calls are given as the source filed them. The calls are words filed in the database; no cut-off is given here.

tested on: not listed separately; experiment: Inhibition of Escherichia coli RNAP assessed as incorporation of [5,6-3H]UTP preincubated for 10 mins followed by DNA template and ATP, CTP, GTP, UTP, [5,6-3H]UTP addition measured after 10 mins by scintillation counting analysis; settings: not given

SMILES	IC50
COC(=O)c1cc(Br)ccc1NC(=O)c1ccc(-c2ccccc2)cc1	Not Active
N#Cc1cc(Br)ccc1NC(=O)c1ccc(-c2ccccc2)cc1	Not Active
NC(=O)c1cc(Br)ccc1NC(=O)c1ccc(-c2ccccc2)cc1	Not Active

same assay, conditions: read-out: IC50

SMILES	IC50
O=C(Nc1cc(-c2ccccc2)sc1C(=O)O)c1ccc(-c2ccccc2)cc1	10 µM
O=C(O)c1cc(Br)ccc1NS(=O)(=O)c1ccc(-c2ccccc2)cc1	35 µM
CCN(CC)S(=O)(=O)c1cccc(C(=O)Nc2ccc(-c3ccc(C(N)=O)cc3)cc2C(=O)O)c1	78 µM
COc1ccc(-c2cc(NC(=O)c3ccc(-c4ccccc4)cc3)c(C(=O)O)s2)cc1	9 µM
O=C(Nc1cc(-c2ccc(Cl)cc2)sc1C(=O)O)c1ccc(-c2ccccc2)cc1	13 µM
O=C(Nc1sccc1C(=O)O)c1ccc(-c2ccccc2)cc1	161 µM
O=C(Nc1cccc(O)c1C(=O)O)c1ccc(-c2ccccc2)cc1	74 µM
O=C(O)c1cc(Br)cc(NC(=O)c2ccc(-c3ccccc3)cc2)c1	110 µM

tested on: not listed separately; experiment: Inhibition of Pseudomonas aeruginosa His-6-tagged PqsD expressed in Escherichia coli BL21 (lambdaDE3) using anthraniloyl-CoA/beta-ketodecanoic acid as substrate by LC-MS/MS analysis; settings: not given

SMILES	IC50
COC(=O)c1cc(Br)ccc1NC(=O)c1ccc(-c2ccccc2)cc1	Not Active
O=C(Nc1ccccc1C(=O)O)c1ccccc1	Not Active
N#Cc1cc(Br)ccc1NC(=O)c1ccc(-c2ccccc2)cc1	Not Active
NC(=O)c1cc(Br)ccc1NC(=O)c1ccc(-c2ccccc2)cc1	Not Active
O=C(O)c1ccc(Br)c(NC(=O)c2ccc(-c3ccccc3)cc2)c1	Not Active
COc1cccc(NC(=O)c2ccc(-c3ccccc3)cc2)c1C(=O)O	Not Active

same assay, conditions: read-out: IC50

SMILES	IC50
O=C(Nc1ccc(C(F)(F)F)cc1C(=O)O)c1ccc(-c2ccccc2)cc1	3.4 µM
O=C(Nc1cc(-c2ccccc2)sc1C(=O)O)c1ccc(-c2ccccc2)cc1	9.8 µM
O=C(O)c1cc(Br)ccc1NS(=O)(=O)c1ccc(-c2ccccc2)cc1	1.3 µM
O=C(Nc1ccc(Br)cc1C(=O)O)c1cccc(Cc2ccccc2)c1	5 µM
O=C(Nc1cc(Cl)ccc1C(=O)O)c1ccc(-c2ccccc2)cc1	8.7 µM
O=C(Nc1ccc(OC(F)(F)F)cc1C(=O)O)c1ccc(-c2ccccc2)cc1	4 µM
O=C(Nc1cscc1C(=O)O)c1ccc(-c2ccccc2)cc1	19.5 µM
O=C(Nc1cc(Cl)ccc1C(=O)O)c1cccc(Oc2ccccc2)c1	5.7 µM
O=C(Nc1ccccc1C(=O)O)c1ccc(-c2ccccc2)c(Oc2ccccc2)c1	6.6 µM
O=C(Nc1cc(Cl)ccc1C(=O)O)c1ccc(-c2ccccc2)c(Oc2ccccc2)c1	5 µM
O=C(Nc1cc(-c2ccccc2)ccc1C(=O)O)c1cccc(Oc2ccccc2)c1	6.6 µM
N#Cc1ccc(NC(=O)c2ccc(-c3ccccc3)cc2)c(C(=O)O)c1	8.6 µM
O=C(Nc1sccc1C(=O)O)c1ccc(-c2ccccc2)cc1	15.7 µM
O=C(Nc1ccc(F)cc1C(=O)O)c1ccc(-c2ccccc2)cc1	15.2 µM
O=C(Nc1cc(C(F)(F)F)ccc1C(=O)O)c1ccc(-c2ccccc2)cc1	4.9 µM
O=C(Nc1cccc(O)c1C(=O)O)c1ccc(-c2ccccc2)cc1	1.3 µM
O=C(Nc1cc(Br)ccc1C(=O)O)c1cccc(Oc2ccccc2)c1	5.1 µM
O=C(Nc1cc(Br)ccc1C(=O)O)c1ccc(-c2ccccc2)cc1	3.2 µM
O=C(Nc1ccc(Br)cc1C(=O)O)c1ccc(-c2ccccc2)cc1	3.2 µM
O=C(Nc1ccc(-c2ccccc2)cc1C(=O)O)c1cccc(Oc2ccccc2)c1	7.7 µM
O=C(Nc1c(Cl)cccc1C(=O)O)c1ccc(-c2ccccc2)cc1	6.2 µM
O=C(Nc1ccsc1C(=O)O)c1ccc(-c2ccccc2)cc1	5.2 µM
O=C(Nc1cc(F)ccc1C(=O)O)c1ccc(-c2ccccc2)cc1	18.2 µM
O=C(Nc1cc([N+](=O)[O-])ccc1C(=O)O)c1ccc(-c2ccccc2)cc1	3.3 µM
O=C(Nc1cc(F)ccc1C(=O)O)c1ccc(-c2ccccc2)c(Oc2ccccc2)c1	6 µM
O=C(Nc1ccc(Br)cc1C(=O)O)c1cccc(Oc2ccccc2)c1	4.4 µM
O=C(Nc1ccc(O)cc1C(=O)O)c1ccc(-c2ccccc2)cc1	4.2 µM
O=C(O)c1cc(Br)cc(NC(=O)c2ccc(-c3ccccc3)cc2)c1	32.6 µM
O=C(Nc1ccc(Cl)cc1C(=O)O)c1ccc(-c2ccccc2)cc1	3.8 µM

tested on: Escherichia coli; experiment: Inhibition of Escherichia coli RNAP assessed as incorporation of [5,6-3H]UTP at 100 uM preincubated for 10 mins followed by DNA template and ATP, CTP, GTP, UTP, [5,6-3H]UTP addition measured after 10 mins by scintillation counting analysis; settings: not given

SMILES	inhibition
CCN(CC)S(=O)(=O)c1cccc(C(=O)Nc2ccc([N+](=O)[O-])cc2C(=O)O)c1	30%
CCN(CC)S(=O)(=O)c1cccc(C(=O)Nc2ccc(-c3ccccc3)cc2C(=O)O)c1	inactive
CCN(CC)S(=O)(=O)c1cccc(C(=O)Nc2cc(Cl)ccc2C(=O)O)c1	inactive
O=C(O)c1cccc(NC(=O)c2ccc(-c3ccccc3)cc2)c1	31%
CCN(CC)S(=O)(=O)c1cc(C(=O)Nc2ccc(F)cc2C(=O)O)ccc1Br	inactive
CCN(CC)S(=O)(=O)c1cccc(C(=O)Nc2ccc(F)cc2C(=O)O)c1	inactive

tested on: Pseudomonas aeruginosa; experiment: Inhibition of Pseudomonas aeruginosa His-6-tagged PqsD expressed in Escherichia coli BL21 (lambdaDE3) using anthraniloyl-CoA/beta-ketodecanoic acid at 25 uM as substrate by LC-MS/MS analysis; settings: not given

SMILES	inhibition
O=C(O)c1cccc(NC(=O)c2ccc(-c3ccccc3)cc2)c1	25%
COc1ccc(C(=O)O)c(NC(=O)c2ccc(-c3ccccc3)cc2)c1	43%

tested on: not listed separately; experiment: Selectivity index, ratio of IC50 for Escherichia coli RNAP to IC50 for Pseudomonas aeruginosa PqsD; settings: not given

SMILES	Ratio IC50
O=C(Nc1cccc(O)c1C(=O)O)c1ccc(-c2ccccc2)cc1	50

tested on: Escherichia coli; experiment: Inhibition of Escherichia coli RNAP assessed as incorporation of [5,6-3H]UTP at 50 uM preincubated for 10 mins followed by DNA template and ATP, CTP, GTP, UTP, [5,6-3H]UTP addition measured after 10 mins by scintillation counting analysis; settings: not given

SMILES	inhibition
CCN(CC)S(=O)(=O)c1cc(C(=O)Nc2ccc(Br)cc2C(=O)O)ccc1Br	inactive
CCN(CC)S(=O)(=O)c1cccc(C(=O)Nc2ccc(Br)cc2C(=O)O)c1	inactive
CCN(CC)S(=O)(=O)c1cccc(C(=O)Nc2ccc(-c3ccc(C(=O)O)cc3)cc2C(=O)O)c1	23%
CCN(CC)S(=O)(=O)c1cccc(C(=O)Nc2ccc(C(F)(F)F)cc2C(=O)O)c1	inactive
O=C(Nc1sc(-c2ccccc2)cc1C(=O)O)c1ccc(-c2ccccc2)cc1	33%

tested on: Escherichia coli; experiment: Inhibition of Escherichia coli RNAP assessed as incorporation of [5,6-3H]UTP at 200 uM preincubated for 10 mins followed by DNA template and ATP, CTP, GTP, UTP, [5,6-3H]UTP addition measured after 10 mins by scintillation counting analysis; settings: not given

SMILES	inhibition
CCN(CC)S(=O)(=O)c1cccc(C(=O)Nc2cc(F)ccc2C(=O)O)c1	inactive
CCN(CC)S(=O)(=O)c1cccc(C(=O)Nc2ccc(-c3cccc(C(N)=O)c3)cc2C(=O)O)c1	45%
O=C(Nc1ccccc1C(=O)O)c1cccc(S(=O)(=O)N2CCOCC2)c1	inactive
CCN(CC)S(=O)(=O)c1cccc(C(=O)Nc2cccc(OC)c2C(=O)O)c1	inactive
CCN(CC)S(=O)(=O)c1cccc(C(=O)Nc2cc([N+](=O)[O-])ccc2C(=O)O)c1	inactive
CCN(CC)C(=O)c1cccc(C(=O)Nc2ccc(Br)cc2C(=O)O)c1	inactive
CCN(CC)S(=O)(=O)c1cccc(C(=O)Nc2cccc(Cl)c2C(=O)O)c1	inactive
CCN(CC)S(=O)(=O)c1ccc(C(=O)Nc2ccc(Br)cc2C(=O)O)cc1	28%
CCN(CC)S(=O)(=O)c1cc(C(=O)Nc2ccccc2C(=O)O)ccc1C	inactive
O=C(O)c1ccc(Br)c(NC(=O)c2ccc(-c3ccccc3)cc2)c1	25%
CCN(CC)S(=O)(=O)c1cccc(C(=O)Nc2ccc(C#N)cc2C(=O)O)c1	inactive
O=C(Nc1cscc1C(=O)O)c1ccc(-c2ccccc2)cc1	33%
CCN(CC)S(=O)(=O)c1cccc(C(=O)Nc2ccc(-c3cccc(C(=O)O)c3)cc2C(=O)O)c1	24%
CCN(CC)S(=O)(=O)c1cccc(C(=O)Nc2cccc(O)c2C(=O)O)c1	inactive
O=C(Nc1ccccc1C(=O)O)c1cccc(S(=O)(=O)N2CCCCC2)c1	inactive
CCN(CC)S(=O)(=O)c1cccc(C(=O)Nc2cccc(F)c2C(=O)O)c1	inactive
CCN(CC)C(=O)c1cccc(C(=O)Nc2ccccc2C(=O)O)c1	inactive
O=C(Nc1ccccc1C(=O)O)c1cccc(S(=O)(=O)N2CCCC2)c1	inactive
NS(=O)(=O)c1cccc(C(=O)Nc2ccccc2C(=O)O)c1	inactive
CCCN(CCC)S(=O)(=O)c1cccc(C(=O)Nc2ccccc2C(=O)O)c1	inactive
CCN(CC)S(=O)(=O)c1ccc(C(=O)Nc2ccccc2C(=O)O)cc1	inactive
CCN(CC)S(=O)(=O)c1cccc(C(=O)Nc2ccc(C)cc2C(=O)O)c1	inactive
CN(C)S(=O)(=O)c1cccc(C(=O)Nc2ccccc2C(=O)O)c1	inactive
CCN(Cc1ccccc1)S(=O)(=O)c1cccc(C(=O)Nc2ccccc2C(=O)O)c1	29%
O=C(Nc1ccsc1C(=O)O)c1ccc(-c2ccccc2)cc1	28%
CCc1ccc(C(=O)Nc2ccccc2C(=O)O)cc1S(=O)(=O)N(CC)CC	inactive
O=C(Nc1ccccc1C(=O)O)c1cccc(S(=O)(=O)N2CCCCCC2)c1	inactive
CCN(CC)S(=O)(=O)c1cc(C(=O)Nc2ccccc2C(=O)O)ccc1Br	inactive
CCN(CC)S(=O)(=O)c1cccc(C(=O)Nc2ccccc2C(=O)O)c1	inactive

tested on: Pseudomonas aeruginosa; experiment: Inhibition of Pseudomonas aeruginosa His-6-tagged PqsD expressed in Escherichia coli BL21 (lambdaDE3) using anthraniloyl-CoA/beta-ketodecanoic acid at 50 uM as substrate by LC-MS/MS analysis; settings: not given

SMILES	inhibition
COc1cc(NC(=O)c2ccc(-c3ccccc3)cc2)c(C(=O)O)cc1OC	27%
O=C(Nc1ccccc1C(=O)O)c1cccc(Oc2ccccc2)c1	37%
O=C(Nc1cccc(F)c1C(=O)O)c1ccc(-c2ccccc2)cc1	21%
COc1ccc(-c2cc(NC(=O)c3ccc(-c4ccccc4)cc3)c(C(=O)O)s2)cc1	45%
O=C(Nc1cccc(Cl)c1C(=O)O)c1ccc(-c2ccccc2)cc1	20%
O=C(Nc1cc(-c2ccc(Cl)cc2)sc1C(=O)O)c1ccc(-c2ccccc2)cc1	35%
O=C(Nc1ccc(F)cc1C(=O)O)c1cccc(Oc2ccccc2)c1	57%
Cc1ccc(NC(=O)c2ccc(-c3ccccc3)cc2)c(C(=O)O)c1	42%
O=C(Nc1ccccc1C(=O)O)c1ccc(-c2ccccc2)cc1	55%
O=C(Nc1sc(-c2ccccc2)cc1C(=O)O)c1ccc(-c2ccccc2)cc1	28%
COc1ccc(NC(=O)c2ccc(-c3ccccc3)cc2)c(C(=O)O)c1	46%
COc1cc(NC(=O)c2cccc(Oc3ccccc3)c2)c(C(=O)O)cc1OC	27%
